# From paper PMC10037499, “High-Throughput Screen Reveals the Structure–Activity Relationship of the Antimicrobial Lasso Peptide Ubonodin” (ACS Central Science, 2023)
# Where a SMILES comes first, the peptide text is derived from it.
# Experiments:
# E. coli MC1061 = test: Spot dilution assay of E. coli producing the ubonodin variant from pUboABC; assay type: cell-based; conditions: variant in pUboABC backbone in E. coli MC1061, induction with 100 μM IPTG, ten-fold serial dilutions, biological duplicates
# Method in brief: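 E. coli MC1061 carrying the plasmids was grown at 37 °C in LB with 100 μg/mL ampicillin to OD600 0.3, then induced with 100 μM IPTG. Samples taken before induction and at later timepoints were PBS-washed, spotted as ten-fold dilutions on ampicillin/0.2% glucose LB plates, and imaged after 16 h at 37 °C.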
# B. cenocepacia AU0756 = test system: B. cenocepacia AU0756
# Method in brief: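 Ubonodin variants were tested by broth microdilution following CLSI guidelines against clinical Burkholderia cenocepacia isolates AU0756 and AU24362.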
# [1] = test system: RNA polymerase (RNAP) in E. coli MC1061; test: High-throughput growth-based screen with NGS (enrichment value) for RNA polymerase inhibition; assay type: cell-based; design: key to Experimental observation (enrichment observed in the screen): Dropout: Many variants inhibit RNAP so strongly that they cannot be detected by NGS after IPTG induction (referred to as dropout variants); conditions: Table S4; variants whose MICs were tested
# Method in brief: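 E. coli MC1061 carrying ubonodin single/double variant plasmid libraries was grown and induced with 10 µM or 100 µM IPTG; surviving colonies were sequenced by NGS. Enrichment value = log2 of variant frequency post-IPTG over frequency in the cloning transformation library; depletion indicates RNAP inhibition.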
compound,measurement,setting,value
"CC[C@H](C)[C@@H]1NC(=O)[C@H](Cc2c[nH]cn2)NC(=O)CNC(=O)[C@H](CC(=O)O)NC(=O)CNC(=O)CNC(=O)CC[C@@H](C(=O)N[C@@H](Cc2ccc(O)cc2)C(=O)N[C@@H](Cc2ccccc2)C(=O)N[C@@H](CC(N)=O)C(=O)N[C@@H](CCCNC(=N)N)C(=O)N2CCC[C@H]2C(=O)N[C@@H](CCSC)C(=O)N[C@@H](Cc2c[nH]cn2)C(=O)N2CCC[C@H]2C(=O)N[C@@H](Cc2c[nH]cn2)C(=O)N[C@@H](CC(=O)O)C(=O)N[C@@H](Cc2c[nH]c3ccccc23)C(=O)N[C@@H](CCC(N)=O)C(=O)N[C@H](C(=O)N[C@@H](CCSC)C(=O)N[C@@H](CC(=O)O)C(=O)N[C@@H](CO)C(=O)NCC(=O)N[C@@H](Cc2ccc(O)cc2)C(=O)N[C@@H](Cc2ccc(O)cc2)C(=O)NCC(=O)O)[C@@H](C)CC)NC(=O)[C@H](C)NC1=O [S5H I16P] (HELM PEPTIDE1{G.G.D.G.H.I.A.E.Y.F.N.R.P.M.H.P.H.D.W.Q.I.M.D.S.G.Y.Y.G}$PEPTIDE1,PEPTIDE1,1:R1-8:R3$$$V2.0)",Inhibits Growth,E. coli MC1061,Yes
same,B. cenocepacia AU0756 MIC,B. cenocepacia AU0756,8 µM
same,Experimental observation (enrichment observed in the screen),[1],Dropout
